According to ChEMBL document CHEMBL1142251, “Identification of novel inhibitors of bacterial surface enzyme Staphylococcus aureus Sortase A” (Bioorg Med Chem Lett, 2008):

Molecular target: T1, Sortase A (Staphylococcus aureus, UniProt Q9S446)
T1 sequence (Q9S446 whole entry): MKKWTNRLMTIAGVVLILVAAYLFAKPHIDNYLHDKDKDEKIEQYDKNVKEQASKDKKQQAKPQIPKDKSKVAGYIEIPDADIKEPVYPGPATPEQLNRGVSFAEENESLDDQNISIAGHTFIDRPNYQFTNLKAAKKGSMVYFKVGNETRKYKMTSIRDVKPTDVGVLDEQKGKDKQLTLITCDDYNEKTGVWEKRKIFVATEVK
Test: Inhibition of Staphylococcus aures sortase A by FRET assay

| SMILES | IC50 [µM] |
| --- | --- |
| NC(=O)c1cc(NC(=O)/C=C/c2cccs2)ccc1N1CCOCC1 | 105 |
| CS(=O)(=NC=C(C#N)C(=O)c1ccco1)c1ccc(Oc2ccc([N+](=O)[O-])cn2)cc1 (stereo not given) | 150 |
| Cc1ccc(S(=O)(=O)NC(=O)Nc2ccc(NC(=O)c3ccccc3O)cc2)cc1 | 226 |
| Nc1nccc(-c2ccc(NC(=O)Nc3ccc(Cl)cc3)cc2)n1 | 400 |
| COC(=O)c1cc(NC(=O)/C=C/c2ccco2)ccc1N1CCOCC1 | 58 |
| N=C(N)N/N=C/c1ccc(/C=N/NC(=N)N)cc1 | 275 |
| O=C(CCc1ccco1)Nc1ccc(N2CCOCC2)c(C(=O)O)c1 | > 600 |
| O=C(CCc1cccs1)Nc1ccc(N2CCOCC2)c(C(=O)O)c1 | > 600 |
| O=C(/C=C/c1cccs1)Nc1ccc(N2CCOCC2)c(CO)c1 | 73 |
| COC(=O)c1cc(NC(=O)CCc2ccco2)ccc1N1CCOCC1 | > 600 |
| O=C(/C=C/c1ccco1)Nc1ccc(N2CCOCC2)c(C(=O)O)c1 | 181 |
| COC(=O)c1cc(NC(=O)CCc2cccs2)ccc1N1CCOCC1 | > 600 |
| O=C(/C=C/c1cccs1)Nc1ccc(N2CCOCC2)c(C(=O)O)c1 | 75 |
| N#Cc1c(SCC(=O)c2ccc([N+](=O)[O-])cc2)[n-][s+]c1SCC(=O)c1ccc([N+](=O)[O-])cc1 | 97.3 |
| O=C(O)/C=C/C(=O)Nc1ccc(NC(=O)c2ccccc2O)cc1 | 125 |
| O=Cc1cc(NC(=O)/C=C/c2ccco2)ccc1N1CCOCC1 | 107 |
| COC(=O)c1cc(NC(=O)/C=C/c2cccs2)ccc1N1CCOCC1 | 71 |
| CS(=O)(=NC=C(C#N)C(=O)c1cccs1)c1ccc(Oc2ccc([N+](=O)[O-])cn2)cc1 (stereo not given) | 400 |
| O=C(/C=C/c1ccco1)Nc1ccc(N2CCOCC2)c(CO)c1 | 111 |
| O=Cc1cc(NC(=O)/C=C/c2cccs2)ccc1N1CCOCC1 | 77 |
